{"source": "patent US10640748B2", "about": "“Oligodendroglial cell culturing methods and in methods for treating neurodegenerative disorders by using thyroid hormones or analogues” (NeuOrphan Pty Ltd, priority 2014, dated 2020)", "key": {"[1]": {"test_system": "Pre-OLs from Nkx2.1-GFP+ sorted cultures at stage VI", "assay": "Cell cycle analysis with BrdU (flow cytometry)", "assay_type": "cell-based, human", "experimental": "BrdU cell cycle analysis was performed according to the manufacturer's protocol (BD Biosciences). For a detailed protocol, see Supplemental Experimental Procedures.\nPre-OLs from Nkx2.1-GFP+ sorted cultures at stage VI day 7 and day 21 were pulsed with BrdU for 1 hour. Cells were then treated with DNAse I for 45 minutes then collected using accutase (Life Technologies). Collected cells were fixed and permeabilized and stained with anti-BrdU conjugated with APC for 30 minutes at 4° C. Cells were washed and stained with 7-AAD. Cells were then analyzed on LSR-Fortessa (BD Biosciences). Unpulsed cells and pulsed cells without anti-BrdU staining served as a negative control."}, "[2]": {"test_system": "H9-derived hOPCs (Merck/Millipore)", "assay": "Microarray analysis of H9-derived hOPC mixed neural cultures treated with DITPA", "assay_type": "cell-based, human", "details": "48 hours", "experimental": "H9-derived hOPCs (Merck/Millipore) were differentiated for 4 weeks and the following treatments were administered to the cells for 48 hours: Medium with 0.01% absolute ethanol control; 1 ng/mL DITPA (DITPA 1 ng/mL); 10 ng/mL DITPA (DITPA 10 ng/mL); or 100 ng/mL DITPA (DITPA 100 ng/mL). 1 μg of collected mRNA from each population was hybridized to Human HT-12 v3.0 Gene Expression BeadChip (Illumina) according to the manufacturer's instruction (For detailed procedure see Supplemental Experimental Procedures).\nH9-derived commercially available human neural precursors were cultured and differentiated according to the manufacturer's protocol (Human OPC differentiation kit, Millipore). Briefly, undifferentiated cells were maintained on 4% growth factor-reduced Matrigel (BD Biosciences) for a week in manufacturer provided expansion medium then differentiated on poly-L-ornithine (10 μg/mL, Sigma-Aldrich) and mouse laminin (10 μg/mL, Life Technologies) coated plates for 4 weeks in manufacturer provided medium.\nRaw signal intensity values were subjected to variance stabilization transformation including background correction, log2 transformation and variance stabilization using the lumiR package of R Bioconductor (Du et al., 2008). Since there were fewer arrays of common genes detected in DITPA 100 ng/mL compared to DITPA 1 ng/mL and 10 ng/mL versus ethanol control, all analyses were performed without DITPA 100 ng/mL. Hierarchical clustering with centroid linkage clustering was performed. ANOVA analyses of normalized probe intensity values were performed in Partek Genomic Suite (Partek). ANOVA was used to calculate the significance of variation in normalized expression values between sample-groups, and fold change of gene expression was calculated as mean ratio. Absolute fold changes of 1.5 or more were defined as differentially expressed. Gene ontology enrichment analysis was performed on the list of differentially expressed probes in Partek."}, "[3]": {"test_system": "Nkx2.1-GFP+ sorted cells at stage VI", "assay": "qRT-PCR gene expression in Nkx2.1-GFP+ sorted cells at stage VI treated with T3, DITPA or T3+DITPA", "assay_type": "cell-based, human", "experimental": "RNA was isolated from cells by using RNeasy Mini Kit (Qiagen) according to the manufacturer's instruction and treated with DNase-I to remove genomic DNA. The concentrations of total RNA were measured by Nanodrop ND-1000 spectrophotometer v3.7 (Thermo Specific) and complementary DNA (cDNA) was synthesized from 1 μg of total RNA using High-Capacity cDNA Reverse Transcription Kit (Applied Biosystems) according to the manufacturer's instructions. Real-Time Quantitative Reverse Transcription Polymerase Chain Reaction (qRT-PCR) was performed with 5-20 ng of cDNA template, 2× Taqman Gene expression master mix and 20× Taqman probes (Life technologies) on ABI Prism 7900HT Sequence detection system (Applied Biosystems). Gapdh served as an endogenous standard control. The qRT-PCR thermo-cycling reaction was 1 cycle at 50° C. for 2 minutes, 1 cycle at 95° C. for 10 minutes and 40 cycles of 95° C. for 15 seconds, then 60° C. for 1 minute. The threshold cycle (CT) value, which represents the cycle at which the first PCR product is detected, was measured in triplicate and normalized against the endogenous control, GAPDH, to determine the ΔCT value. Then the ΔCT values of GFP-positive cells were then standardized against the ΔCT values of undifferentiated hESCs, derived as relative mRNA expression (ΔΔCT).\nBar graphs illustrating the qRT-PCR analyses in FIG. 2, 3, S1-3 representing the log2 of the average fold-change in gene expression compared directly to the undifferentiated Stage I hESC or T3-treated cells at day 7 in FIG. 5 and S5."}, "[4]": {"test_system": "Pre-OLs from Nkx2.1-GFP+ sorted cultures at stage VI, day 21", "assay": "Pharmacological blockade of MCT8 with Bosutinib, DAPI+ dead cells by flow cytometry", "assay_type": "cell-based, human", "details": "co-administration of 10 ng/mL DITPA with Bosutinib, 48 hours", "experimental": "Pre-OLs from Nkx2.1-GFP+ sorted cultures at stage VI, day 21 were treated with the pharmacological inhibitor of MCT8, bosutinib (LC Laboratories, B-1788, reconstituted in dimethyl sulfoxide, [DMSO]) at different concentrations (1 ng/mL, 10 ng/mL and 100 ng/mL) with co-administration of 10 ng/mL DITPA. An MTT assay and flow cytometry were then performed on the cells stained for DAPI after 48 hours of treatment, to analyze DAPI+ dead cells."}, "[5]": {"details": "cited from earlier work"}, "AHDS patients": {"test_system": "AHDS patients", "details": "cited from earlier work"}, "[6]": {"details": "1 and 10 ng/mL, vs ethanol control"}, "[7]": {"details": "compared to T3 treated cultures"}, "[8]": {"details": "differentiating cultures treated with DITPA"}}, "note": "“Also recorded” adds a separate entry of the source.", "data": [{"compound": "O=C(O)CCc1cc(I)c(Oc2ccc(O)cc2)c(I)c1", "note": "[DITPA, 3,5-Diiodothyropropionic acid]", "values": [{"measurement": "cell cycle exit", "setting": "[1]; compared with T3", "value": "potentiates cell cycle exit faster than T3"}, {"measurement": "numbers of cells in S phase", "setting": "[1]; day 7, compared with T3 alone", "value": "significant reduction"}, {"measurement": "ASCL1 expression (oligodendroglial enriched transcription factor)", "setting": "[2]; [6]", "value": "up-regulation"}, {"measurement": "CRYM (μ-crystallin) expression", "setting": "[2]; [6]", "value": "down-regulation"}, {"measurement": "DIO3OS expression", "setting": "[2]; [6]", "value": "up-regulation"}, {"measurement": "DIO3 expression", "setting": "[2]; [6]", "value": "up-regulation"}, {"measurement": "MYT1 expression (oligodendroglial enriched transcription factor)", "setting": "[2]; [6]", "value": "up-regulation"}, {"measurement": "RARA expression", "setting": "[2]; [6]", "value": "up-regulation"}, {"measurement": "RARRES3 expression", "setting": "[2]; [6]", "value": "down-regulation"}, {"measurement": "astrocyte and neuron enriched transcription factors regulated", "setting": "[2]; [6]", "value": "minimal"}, {"measurement": "thrb expression", "setting": "[2]; [6]", "value": "up-regulation"}, {"measurement": "commonly regulated genes", "setting": "[2]; DITPA at 1 ng/mL and 10 ng/mL vs ethanol control", "value": 3385}, {"measurement": "up-regulation of metallothionein (MT1A)", "setting": "[2]; upon DITPA treatment", "value": "~8", "unit": "fold"}, {"measurement": "up-regulation of p53", "setting": "[2]; upon DITPA treatment", "value": "~2", "unit": "fold"}, {"measurement": "up-regulation of reprimo (RPRM)", "setting": "[2]; upon DITPA treatment", "value": "~13", "unit": "fold"}, {"measurement": "cdkn1b (p27) expression", "setting": "[3]; [7]", "value": "up-regulated"}, {"measurement": "tp53 (p53) expression", "setting": "[3]; [7]", "value": "up-regulated"}, {"measurement": "OL differentiation", "setting": "[3]; compared with T3", "value": "promotes OL differentiation"}, {"measurement": "dio2 expression", "setting": "[3]; compared with T3 treatment", "value": "no significant differences"}, {"measurement": "dio3 expression", "setting": "[3]; compared with T3 treatment", "value": "no significant differences"}, {"measurement": "thrb expression", "setting": "[3]; compared with T3 treatment", "value": "no significant differences"}, {"measurement": "slc16a2 (MCT8) expression", "setting": "[3]; day 7, compared with T3", "value": "significant up-regulation"}, {"measurement": "slc16a10 (MCT10) expression", "setting": "[3]; day 7, compared with T3", "value": "significant up-regulation"}, {"measurement": "plp1 expression", "setting": "[3]; day 21 of treatment, versus T3 alone", "value": "substantial up-regulation"}, {"measurement": "mbp expression", "setting": "[3]; [8]", "value": "up-regulation"}, {"measurement": "myt1 expression", "setting": "[3]; [8]", "value": "up-regulation"}, {"measurement": "plp1 expression", "setting": "[3]; [8]", "value": "up-regulation"}, {"measurement": "olig1 expression", "setting": "[3]; following DITPA treatment", "value": "up-regulated"}, {"measurement": "olig2 expression", "setting": "[3]; following DITPA treatment", "value": "up-regulated"}, {"measurement": "sox10 expression", "setting": "[3]; following DITPA treatment", "value": "up-regulated"}, {"measurement": "up-regulation of slc16a10", "setting": "[3]; following DITPA treatment", "value": "~14", "unit": "fold"}, {"measurement": "bmp7 expression", "setting": "[3]; upon DITPA treatment", "value": "down-regulation"}, {"measurement": "frzb expression (WNT antagonist)", "setting": "[3]; upon DITPA treatment", "value": "up-regulation"}, {"measurement": "jun expression", "setting": "[3]; upon DITPA treatment", "value": "down-regulation"}, {"measurement": "sfrp1 expression (WNT antagonist)", "setting": "[3]; upon DITPA treatment", "value": "up-regulation"}, {"measurement": "sfrp2 expression (WNT antagonist)", "setting": "[3]; upon DITPA treatment", "value": "up-regulation"}, {"measurement": "tgfb3 expression", "setting": "[3]; upon DITPA treatment", "value": "down-regulation"}, {"measurement": "tnfrsf2 (encodes DR6) expression", "setting": "[3]; upon DITPA treatment", "value": "almost negligible up-regulation"}, {"measurement": "wnt5a expression", "setting": "[3]; upon DITPA treatment", "value": "down-regulation"}, {"measurement": "cell death (DAPI+ dead cells) under Bosutinib MCT8 blockade", "setting": "[4]", "value": "significant reduction in cell death; also recorded: DITPA treatment of differentiating OPCs overcomes the cell death initiated by the"}, {"measurement": "solubility in water and aqueous solutions", "setting": "[5]", "value": "sparingly soluble"}, {"measurement": "hypermetabolism", "setting": "AHDS patients", "value": "reduce"}, {"measurement": "peripheral hyperthyroidism", "setting": "AHDS patients", "value": "normalize"}]}]}
